SMILES strings stand for the structures.

What all share (experiment): KinomeScan panel screen
What all share (type): binding

In one experiment the target is T1, AXL (Homo sapiens, UniProt P30530).
T1 construct: purchased DiscoveRx KINOMEscan (TRKA and CSF1R IC50 enzymes from Invitrogen)
The following applies: 100 nM, read-out: Percent Control.

In the next experiment the target is T2, BRSK2 (Homo sapiens, UniProt Q8IWQ3).
T2 construct: purchased DiscoveRx KINOMEscan (TRKA and CSF1R IC50 enzymes from Invitrogen)
Conditions: BRSK2, 100 nM; read-out: Percent Control.

A further experiment addresses T3, DRAK1 (Homo sapiens, UniProt Q9UEE5).
T3 construct: purchased DiscoveRx KINOMEscan (TRKA and CSF1R IC50 enzymes from Invitrogen)
Conditions: DRAK1, 100 nM; read-out: Percent Control.

For the next experiment, the target named is T4, EGFR (Homo sapiens, UniProt P00533).
T4 construct: purchased DiscoveRx KINOMEscan (TRKA and CSF1R IC50 enzymes from Invitrogen)
The following applies: 100 nM, read-out: Percent Control.

A further experiment has as its target T5, FYN (Homo sapiens, UniProt P06241).
T5 construct: purchased DiscoveRx KINOMEscan (TRKA and CSF1R IC50 enzymes from Invitrogen)
The following applies: 100 nM, read-out: Percent Control.

The next experiment addresses T6, GAK (Homo sapiens, UniProt O14976).
T6 construct: purchased DiscoveRx KINOMEscan (TRKA and CSF1R IC50 enzymes from Invitrogen)
Conditions: 100 nM, read-out: Percent Control.

In a further experiment the target is T7, GSK3B (Homo sapiens, UniProt P49841).
T7 construct: purchased DiscoveRx KINOMEscan (TRKA and CSF1R IC50 enzymes from Invitrogen)
The following applies: 100 nM, read-out: Percent Control.

In a further experiment the target is T8, HIPK2 (Homo sapiens, UniProt Q9H2X6).
T8 construct: purchased DiscoveRx KINOMEscan (TRKA and CSF1R IC50 enzymes from Invitrogen)
The following applies: HIPK2, 100 nM; read-out: Percent Control.

The next experiment concerns the target T9, JNK2 (Homo sapiens, UniProt P45984).
T9 construct: purchased DiscoveRx KINOMEscan (TRKA and CSF1R IC50 enzymes from Invitrogen)
The following applies: JNK2, 100 nM; read-out: Percent Control.

For another experiment, the target named is T10, LIMK2 (Homo sapiens, UniProt P53671).
T10 construct: purchased DiscoveRx KINOMEscan (TRKA and CSF1R IC50 enzymes from Invitrogen)
Conditions: LIMK2, 100 nM; read-out: Percent Control.

The target in another experiment is T11, MTOR (Homo sapiens, UniProt P42345).
T11 construct: purchased DiscoveRx KINOMEscan (TRKA and CSF1R IC50 enzymes from Invitrogen)
The following applies: 100 nM, read-out: Percent Control.

In a further experiment the target is T12, MYO3A (Homo sapiens, UniProt Q8NEV4).
T12 construct: purchased DiscoveRx KINOMEscan (TRKA and CSF1R IC50 enzymes from Invitrogen)
Conditions: 100 nM, read-out: Percent Control.

The target in a further experiment is T13, NDR1 (Homo sapiens, UniProt Q15208).
T13 construct: purchased DiscoveRx KINOMEscan (TRKA and CSF1R IC50 enzymes from Invitrogen)
Conditions: NDR1, 100 nM; read-out: Percent Control.

The target of another experiment is T14, PDPK1 (Homo sapiens, UniProt O15530).
T14 construct: purchased DiscoveRx KINOMEscan (TRKA and CSF1R IC50 enzymes from Invitrogen)
The following applies: PDPK1, 100 nM; read-out: Percent Control.

For the next experiment, the target named is T15, PIK3CA (Homo sapiens, UniProt P42336).
T15 construct: purchased DiscoveRx KINOMEscan (TRKA and CSF1R IC50 enzymes from Invitrogen)
The following applies: 100 nM, read-out: Percent Control.

The target in another experiment is T16, PKAC-beta (Homo sapiens, UniProt P22694).
T16 construct: purchased DiscoveRx KINOMEscan (TRKA and CSF1R IC50 enzymes from Invitrogen)
Conditions: 100 nM, read-out: Percent Control.

A further experiment concerns the target T17, PRKD2 (Homo sapiens, UniProt Q9BZL6).
T17 construct: purchased DiscoveRx KINOMEscan (TRKA and CSF1R IC50 enzymes from Invitrogen)
The following applies: PRKD2, 100 nM; read-out: Percent Control.

The next experiment addresses T18, ROCK2 (Homo sapiens, UniProt O75116).
T18 construct: purchased DiscoveRx KINOMEscan (TRKA and CSF1R IC50 enzymes from Invitrogen)
Conditions: ROCK2, 100 nM; read-out: Percent Control.

The target of the next experiment is T19, SLK (Homo sapiens, UniProt Q9H2G2).
T19 construct: purchased DiscoveRx KINOMEscan (TRKA and CSF1R IC50 enzymes from Invitrogen)
The following applies: 100 nM, read-out: Percent Control.

The target in the next experiment is T20, STK33 (Homo sapiens, UniProt Q9BYT3).
T20 construct: purchased DiscoveRx KINOMEscan (TRKA and CSF1R IC50 enzymes from Invitrogen)
Conditions: STK33, 100 nM; read-out: Percent Control.

The target of a further experiment is T21, ULK1 (Homo sapiens, UniProt O75385).
T21 construct: purchased DiscoverX (outsourced KINOMEscan)
The following applies: ULK1, 100 nM; read-out: Percent Control.

In another experiment the target is T22, ULK2 (Homo sapiens, UniProt Q8IYT8).
T22 construct: purchased DiscoverX (outsourced KINOMEscan)
The following applies: ULK2, 100 nM; read-out: Percent Control.

T19 sequence (Q9H2G2 whole entry): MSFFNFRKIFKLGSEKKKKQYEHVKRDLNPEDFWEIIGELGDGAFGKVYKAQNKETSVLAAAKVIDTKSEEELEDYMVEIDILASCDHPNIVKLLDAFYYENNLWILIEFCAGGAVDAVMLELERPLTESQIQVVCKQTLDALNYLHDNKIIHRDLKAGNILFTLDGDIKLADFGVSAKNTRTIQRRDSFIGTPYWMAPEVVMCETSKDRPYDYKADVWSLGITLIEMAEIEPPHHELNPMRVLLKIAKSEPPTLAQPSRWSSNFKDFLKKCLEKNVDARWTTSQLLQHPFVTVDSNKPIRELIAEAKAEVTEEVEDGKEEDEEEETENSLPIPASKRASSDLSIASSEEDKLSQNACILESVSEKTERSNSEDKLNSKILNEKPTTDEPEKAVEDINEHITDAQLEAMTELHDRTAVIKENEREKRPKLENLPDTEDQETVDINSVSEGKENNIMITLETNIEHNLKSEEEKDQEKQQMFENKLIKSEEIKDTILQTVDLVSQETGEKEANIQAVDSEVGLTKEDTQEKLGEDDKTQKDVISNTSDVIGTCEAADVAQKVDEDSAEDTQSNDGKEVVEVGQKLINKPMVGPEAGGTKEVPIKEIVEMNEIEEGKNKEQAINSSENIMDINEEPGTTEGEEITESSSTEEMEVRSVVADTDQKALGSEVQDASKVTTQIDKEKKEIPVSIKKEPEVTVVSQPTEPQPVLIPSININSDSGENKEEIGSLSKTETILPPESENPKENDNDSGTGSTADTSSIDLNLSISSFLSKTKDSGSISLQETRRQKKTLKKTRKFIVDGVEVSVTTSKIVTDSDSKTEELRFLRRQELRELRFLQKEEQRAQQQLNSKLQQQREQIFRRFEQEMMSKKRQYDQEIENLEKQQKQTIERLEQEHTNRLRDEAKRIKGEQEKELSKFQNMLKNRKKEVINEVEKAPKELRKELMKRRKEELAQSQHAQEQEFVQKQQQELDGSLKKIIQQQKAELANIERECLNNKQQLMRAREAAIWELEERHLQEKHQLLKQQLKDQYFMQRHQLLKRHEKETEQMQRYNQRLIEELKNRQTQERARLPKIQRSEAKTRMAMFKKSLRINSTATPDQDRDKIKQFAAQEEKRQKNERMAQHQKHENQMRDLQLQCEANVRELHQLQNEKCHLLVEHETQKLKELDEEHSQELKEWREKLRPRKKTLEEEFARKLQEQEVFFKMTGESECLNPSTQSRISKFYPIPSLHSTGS
T2 sequence (Q8IWQ3 whole entry): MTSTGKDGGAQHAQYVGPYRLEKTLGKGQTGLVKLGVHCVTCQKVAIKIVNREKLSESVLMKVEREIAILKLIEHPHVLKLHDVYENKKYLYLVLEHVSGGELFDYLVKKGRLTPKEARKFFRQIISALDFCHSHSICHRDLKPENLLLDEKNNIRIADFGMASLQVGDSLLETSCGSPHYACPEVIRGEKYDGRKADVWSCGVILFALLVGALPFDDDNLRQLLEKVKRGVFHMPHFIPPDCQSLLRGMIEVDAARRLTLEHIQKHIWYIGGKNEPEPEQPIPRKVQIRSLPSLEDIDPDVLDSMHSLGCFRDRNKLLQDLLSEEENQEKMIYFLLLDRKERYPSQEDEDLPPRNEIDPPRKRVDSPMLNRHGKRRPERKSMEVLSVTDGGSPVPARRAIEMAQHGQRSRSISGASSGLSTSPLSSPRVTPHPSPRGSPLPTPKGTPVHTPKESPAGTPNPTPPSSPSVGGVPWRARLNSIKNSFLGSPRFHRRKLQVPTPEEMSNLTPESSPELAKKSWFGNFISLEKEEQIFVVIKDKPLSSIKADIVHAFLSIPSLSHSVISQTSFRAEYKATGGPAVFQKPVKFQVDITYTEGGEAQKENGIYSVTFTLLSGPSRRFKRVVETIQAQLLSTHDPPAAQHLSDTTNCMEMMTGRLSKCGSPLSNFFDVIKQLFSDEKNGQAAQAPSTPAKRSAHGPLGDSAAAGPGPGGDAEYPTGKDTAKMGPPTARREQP
T4 sequence (P00533 25-1210): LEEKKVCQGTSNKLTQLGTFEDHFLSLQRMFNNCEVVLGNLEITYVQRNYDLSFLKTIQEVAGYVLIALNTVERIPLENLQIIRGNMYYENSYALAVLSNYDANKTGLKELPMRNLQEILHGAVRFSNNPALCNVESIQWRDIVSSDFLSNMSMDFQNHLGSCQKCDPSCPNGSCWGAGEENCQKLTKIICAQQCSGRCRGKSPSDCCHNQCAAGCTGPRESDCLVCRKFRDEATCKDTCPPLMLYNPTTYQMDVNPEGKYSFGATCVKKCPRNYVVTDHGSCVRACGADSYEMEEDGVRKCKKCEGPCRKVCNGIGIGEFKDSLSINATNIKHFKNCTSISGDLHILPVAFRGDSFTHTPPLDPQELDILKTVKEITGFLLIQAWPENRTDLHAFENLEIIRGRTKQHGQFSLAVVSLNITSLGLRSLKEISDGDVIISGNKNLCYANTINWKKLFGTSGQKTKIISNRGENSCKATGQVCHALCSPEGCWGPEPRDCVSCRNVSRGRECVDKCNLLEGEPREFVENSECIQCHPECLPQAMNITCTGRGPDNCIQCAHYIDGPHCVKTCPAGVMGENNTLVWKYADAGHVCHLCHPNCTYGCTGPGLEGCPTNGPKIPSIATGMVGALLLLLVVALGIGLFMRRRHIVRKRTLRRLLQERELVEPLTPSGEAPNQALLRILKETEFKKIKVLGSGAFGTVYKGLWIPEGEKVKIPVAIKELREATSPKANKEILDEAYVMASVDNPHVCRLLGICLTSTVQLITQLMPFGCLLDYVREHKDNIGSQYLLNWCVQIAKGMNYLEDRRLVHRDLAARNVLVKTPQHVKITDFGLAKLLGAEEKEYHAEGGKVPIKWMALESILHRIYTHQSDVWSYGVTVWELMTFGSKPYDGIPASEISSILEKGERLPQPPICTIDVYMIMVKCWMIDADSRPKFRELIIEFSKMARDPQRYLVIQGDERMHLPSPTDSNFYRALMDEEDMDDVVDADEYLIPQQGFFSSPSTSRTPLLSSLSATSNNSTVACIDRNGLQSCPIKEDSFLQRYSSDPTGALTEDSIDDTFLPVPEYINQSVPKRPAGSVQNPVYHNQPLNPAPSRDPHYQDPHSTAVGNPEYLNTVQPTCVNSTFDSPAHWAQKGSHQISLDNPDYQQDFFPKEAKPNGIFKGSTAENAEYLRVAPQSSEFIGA
T18 sequence (O75116 whole entry): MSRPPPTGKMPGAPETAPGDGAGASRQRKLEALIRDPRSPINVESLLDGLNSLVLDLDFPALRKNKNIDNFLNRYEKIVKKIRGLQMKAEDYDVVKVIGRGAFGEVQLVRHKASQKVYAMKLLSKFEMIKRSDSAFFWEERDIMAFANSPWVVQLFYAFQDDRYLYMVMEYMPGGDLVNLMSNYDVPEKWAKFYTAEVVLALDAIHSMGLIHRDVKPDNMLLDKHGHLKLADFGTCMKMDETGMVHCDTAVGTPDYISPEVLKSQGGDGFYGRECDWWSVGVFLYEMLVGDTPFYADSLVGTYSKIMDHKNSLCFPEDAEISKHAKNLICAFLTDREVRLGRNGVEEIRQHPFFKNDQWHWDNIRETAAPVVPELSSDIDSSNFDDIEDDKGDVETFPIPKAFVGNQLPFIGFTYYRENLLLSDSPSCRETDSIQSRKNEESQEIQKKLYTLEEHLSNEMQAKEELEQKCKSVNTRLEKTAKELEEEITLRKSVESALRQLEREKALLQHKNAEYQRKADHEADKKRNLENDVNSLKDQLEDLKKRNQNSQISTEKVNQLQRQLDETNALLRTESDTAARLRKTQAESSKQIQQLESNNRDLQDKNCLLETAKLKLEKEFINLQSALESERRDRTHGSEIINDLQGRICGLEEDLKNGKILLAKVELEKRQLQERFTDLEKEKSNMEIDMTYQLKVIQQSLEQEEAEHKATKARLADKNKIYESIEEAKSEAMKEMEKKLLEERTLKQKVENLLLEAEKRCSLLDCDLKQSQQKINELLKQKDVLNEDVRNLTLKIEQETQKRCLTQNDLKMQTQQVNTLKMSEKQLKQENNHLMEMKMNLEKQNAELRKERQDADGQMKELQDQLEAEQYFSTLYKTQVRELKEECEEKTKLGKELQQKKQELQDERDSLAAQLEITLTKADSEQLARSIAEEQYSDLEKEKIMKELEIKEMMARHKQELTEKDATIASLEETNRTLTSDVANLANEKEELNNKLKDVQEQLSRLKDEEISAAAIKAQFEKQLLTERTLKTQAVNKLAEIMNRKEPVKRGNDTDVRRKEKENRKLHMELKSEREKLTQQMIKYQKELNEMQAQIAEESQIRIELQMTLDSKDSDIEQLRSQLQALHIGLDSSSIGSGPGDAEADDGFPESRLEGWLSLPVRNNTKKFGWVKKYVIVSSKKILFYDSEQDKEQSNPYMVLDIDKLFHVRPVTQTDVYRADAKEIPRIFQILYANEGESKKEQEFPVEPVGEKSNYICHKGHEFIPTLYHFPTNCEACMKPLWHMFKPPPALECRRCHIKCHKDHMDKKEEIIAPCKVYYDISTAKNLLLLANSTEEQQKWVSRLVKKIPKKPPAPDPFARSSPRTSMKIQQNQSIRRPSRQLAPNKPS
T20 sequence (Q9BYT3 whole entry): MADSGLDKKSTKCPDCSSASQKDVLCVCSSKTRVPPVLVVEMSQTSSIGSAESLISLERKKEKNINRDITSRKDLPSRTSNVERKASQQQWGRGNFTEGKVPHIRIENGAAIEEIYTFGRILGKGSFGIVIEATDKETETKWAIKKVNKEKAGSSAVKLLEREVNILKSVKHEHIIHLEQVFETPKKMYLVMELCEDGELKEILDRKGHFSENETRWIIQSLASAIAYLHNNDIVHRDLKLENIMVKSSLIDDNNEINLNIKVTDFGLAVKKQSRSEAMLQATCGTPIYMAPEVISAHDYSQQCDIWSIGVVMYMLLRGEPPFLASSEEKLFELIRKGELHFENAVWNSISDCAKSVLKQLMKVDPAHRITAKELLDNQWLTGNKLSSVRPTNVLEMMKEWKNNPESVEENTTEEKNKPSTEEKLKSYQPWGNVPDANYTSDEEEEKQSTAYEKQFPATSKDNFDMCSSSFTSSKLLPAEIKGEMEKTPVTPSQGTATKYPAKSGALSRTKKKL

`CC(C)(C)c1cc(NC(=O)Cc2ccc(-n3cnc4cc(-c5ccc(S(C)(=O)=O)cc5)ccc43)cc2)no1` [NPA101.3]: the remaining binding at 0.1 µM at AXL came out at 62%; on BRSK2, 100%; on DRAK1, 75%; at EGFR, 96%; on FYN, 27%; on GAK it was 42%. In addition, the remaining binding at 0.1 µM was 100% on GSK3B; 98% at HIPK2; 78% at JNK2; 94% at LIMK2; 97% on MTOR; 77% at MYO3A. The remaining binding at 0.1 µM is 86% at NDR1; 96% on PDPK1; 100% at PIK3CA; 82% on PKAC-beta; 100% on PRKD2; 100% at ROCK2. Besides, the remaining binding at 0.1 µM at SLK came out at 35%; on STK33, 83%; at ULK1 it was 100%; on ULK2 it was 100%.

Values taken from publication PMC7901654, “Bioisosteric Discovery of NPA101.3, a Second-Generation RET/VEGFR2 Inhibitor Optimized for Single-Agent Polypharmacology” (Journal of Medicinal Chemistry, 2020).
